According to patent US20170057955A1, “Pyridopyrimidinone Compounds for Modulating the Catalytic Activity of Histone Lysine Demethylases (KDMs)” (Dong-A Socio Holdings Co., Ltd., priority 2015, published 2017):

Biological target: T1, Recombinant human JARID1B/KDM5B (Homo sapiens, UniProt Q9UGL1)
T1 construct: purchased Active Motif 31432; host or cells: Sf9 insect cells
Assay: LANCE Ultra TR-FRET JARID1B (KDM5B) demethylase inhibition assay
Type: biochemical
Conditions: 0.1 uM of test-compounds, FLAG-JARID1B, 500 nM biotinylated H3K4me3 peptide substrate, 30 min at room temperature
Outline: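 FLAG-tagged JARID1B from Sf9 cells, pre-incubated 5 min with 0.1 uM compound (1% DMSO), then 500 nM biotinylated H3K4me3 peptide, 500 uM 2-OG, 25 uM Fe(II), 2 mM ascorbate in pH 7.5 Hepes buffer. After 30 min at room temperature, H3K4me2/1 product detected by TR-FRET (665/590 nm ratio).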

T1 sequence (Q9UGL1 whole entry): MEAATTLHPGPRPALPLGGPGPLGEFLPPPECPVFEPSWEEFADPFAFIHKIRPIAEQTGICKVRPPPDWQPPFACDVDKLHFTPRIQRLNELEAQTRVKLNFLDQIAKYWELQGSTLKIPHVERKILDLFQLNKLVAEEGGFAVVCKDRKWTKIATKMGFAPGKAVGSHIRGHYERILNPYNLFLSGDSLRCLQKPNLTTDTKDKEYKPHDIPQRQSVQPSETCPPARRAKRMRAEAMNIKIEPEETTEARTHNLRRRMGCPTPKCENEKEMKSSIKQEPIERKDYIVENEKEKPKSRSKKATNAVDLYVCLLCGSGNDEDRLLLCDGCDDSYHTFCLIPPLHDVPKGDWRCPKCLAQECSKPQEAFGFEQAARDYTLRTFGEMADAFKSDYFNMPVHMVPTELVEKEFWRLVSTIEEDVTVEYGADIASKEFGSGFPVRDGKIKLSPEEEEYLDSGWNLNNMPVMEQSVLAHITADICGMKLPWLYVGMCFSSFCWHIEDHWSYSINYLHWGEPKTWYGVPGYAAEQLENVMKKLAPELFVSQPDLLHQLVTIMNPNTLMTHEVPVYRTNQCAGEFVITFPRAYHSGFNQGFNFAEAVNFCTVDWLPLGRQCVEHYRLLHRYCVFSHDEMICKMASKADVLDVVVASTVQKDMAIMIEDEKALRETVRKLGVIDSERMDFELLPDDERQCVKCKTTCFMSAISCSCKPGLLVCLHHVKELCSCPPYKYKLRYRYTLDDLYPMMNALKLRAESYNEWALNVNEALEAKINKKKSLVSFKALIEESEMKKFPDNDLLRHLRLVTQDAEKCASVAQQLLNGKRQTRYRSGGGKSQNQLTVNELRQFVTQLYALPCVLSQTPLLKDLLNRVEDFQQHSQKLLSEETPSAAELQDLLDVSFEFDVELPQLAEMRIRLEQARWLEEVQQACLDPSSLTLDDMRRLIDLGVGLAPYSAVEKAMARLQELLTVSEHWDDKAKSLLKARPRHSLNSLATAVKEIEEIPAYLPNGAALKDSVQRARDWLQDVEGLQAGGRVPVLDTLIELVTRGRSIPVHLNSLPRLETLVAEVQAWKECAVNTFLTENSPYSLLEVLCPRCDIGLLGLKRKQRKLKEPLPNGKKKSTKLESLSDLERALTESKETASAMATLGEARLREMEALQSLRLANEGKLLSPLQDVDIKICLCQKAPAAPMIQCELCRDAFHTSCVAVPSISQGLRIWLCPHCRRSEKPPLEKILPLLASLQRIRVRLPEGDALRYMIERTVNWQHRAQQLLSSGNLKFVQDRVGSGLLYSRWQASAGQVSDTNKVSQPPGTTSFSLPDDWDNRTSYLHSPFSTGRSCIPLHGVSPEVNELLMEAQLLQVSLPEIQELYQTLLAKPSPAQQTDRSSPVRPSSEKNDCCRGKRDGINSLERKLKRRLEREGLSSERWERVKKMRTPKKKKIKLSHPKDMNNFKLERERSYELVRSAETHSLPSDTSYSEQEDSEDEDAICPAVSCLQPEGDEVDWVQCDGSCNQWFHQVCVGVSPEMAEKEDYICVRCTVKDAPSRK

Row | inhibition at 0.1 µM [%] | Compound
1 | < 20 | O=c1[nH]c(COc2ccc(Cc3ccccc3)cc2)nc2c(-c3csc(Nc4ccccc4)n3)nccc12 [Compound 73, 2-((4-benzylphenoxy)methyl)-8-(2-(phenylamino)thiazol-4-yl)pyrido[3,4-d]pyrimidin-4(3H)-one]
2 | < 20 | O=c1[nH]c(COCc2ccccc2)nc2c(-c3csc(NCC4CCN(CCO)CC4)n3)nccc12 [Compound 153, 2-((benzyloxy)methyl)-8-(2-(((1-(2-hydroxyethyl)piperidin-4-yl)methyl)amino)thiazol-4-yl)pyrido[3,4-d]pyrimidin-4(3H)-one]
3 | 20 to 50 | O=c1[nH]c(COc2ccc(F)c(Cl)c2)nc2c(-c3csc(NCC4CCN(CCO)CC4)n3)nccc12 [Compound 100, 2-((3-chloro-4-fluorophenoxy)methyl)-8-(2-(((1-(2-hydroxyethyl)piperidin-4-yl)methyl)amino)thiazol-4-yl)pyrido[3,4-d]pyrimidin-4(3H)-one]
4 | ≥ 50 | COCCNc1nc(-c2nccc3c(=O)[nH]c(COc4ccc(F)c(Cl)c4)nc23)cs1 [Compound 86, 2-((3-chloro-4-fluorophenoxy)methyl)-8-(2-((2-methoxyethyl)amino)thiazol-4-yl)pyrido[3,4-d]pyrimidin-4(3H)-one]
5 | 20 to 50 | CCC(O)CNc1nc(-c2nccc3c(=O)[nH]c(COc4ccc(F)c(Cl)c4)nc23)cs1 (centres unmarked) [Compound 95, 2-((3-chloro-4-fluorophenoxy)methyl)-8-(2-((2-hydroxybutyl)amino)thiazol-4-yl)pyrido[3,4-d]pyrimidin-4(3H)-one]
6 | < 20 | O=c1[nH]c(COc2ccc(F)c(Cl)c2)nc2c(-c3csc(NCCc4ccccc4Oc4ccccc4)n3)nccc12 [Compound 110, 2-((3-chloro-4-fluorophenoxy)methyl)-8-(2-((2-phenoxyphenethyl)amino)thiazol-4-yl)pyrido[3,4-d]pyrimidin-4(3H)-one]
7 | < 20 | CN1CCN(CCNc2nc(-c3nccc4c(=O)[nH]c(COCc5ccccc5)nc34)cs2)CC1 [Compound 151, 2-((benzyloxy)methyl)-8-(2-((2-(4-methylpiperazin-1-yl)ethyl)amino)thiazol-4-yl)pyrido[3,4-d]pyrimidin-4(3H)-one]
8 | ≥ 50 | Nc1nc(-c2nccc3c(=O)[nH]c(COc4ccc(Cc5ccccc5)cc4)nc23)cs1 [Compound 71, 8-(2-aminothiazol-4-yl)-2-((4-benzylphenoxy)methyl) pyrido[3,4-d]pyrimidin-4(3H)-one]
9 | 20 to 50 | CN1CCC(Nc2nc(-c3nccc4c(=O)[nH]c(COCc5ccccc5)nc34)cs2)CC1 [Compound 155, 2-((benzyloxy)methyl)-8-(2-((1-methylpiperidin-4-yl)amino)thiazol-4-yl)pyrido[3,4-d]pyrimidin-4(3H)-one]
10 | < 20 | O=c1[nH]c(COc2ccc(F)c(Cl)c2)nc2c(-c3csc(NCCc4ccc(Cl)c(Cl)c4)n3)nccc12 [Compound 108, 2-((3-chloro-4-fluorophenoxy)methyl)-8-(2-((3,4-dichlorophenethyl)amino)thiazol-4-yl)pyrido[3,4-d]pyrimidin-4(3H)-one]
11 | < 20 | CN(C)CCNc1nc(-c2nccc3c(=O)[nH]c(COCc4ccccc4)nc23)cs1 [Compound 148, 2-((benzyloxy)methyl)-8-(2-((2-(dimethylamino)ethyl)amino)thiazol-4-yl)pyrido[3,4-d]pyrimidin-4(3H)-one]
12 | ≥ 50 | C[C@H](O)CNc1nc(-c2nccc3c(=O)[nH]c(COc4ccc(F)c(Cl)c4)nc23)cs1 [Compound 84, (S)-2-((3-chloro-4-fluorophenoxy)methyl)-8-(2-((2-hydroxypropyl)amino)thiazol-4-yl)pyrido[3,4-d]pyrimidin-4(3H)-one]
13 | ≥ 50 | C[C@@H](O)CNc1nc(-c2nccc3c(=O)[nH]c(COc4ccc(F)c(Cl)c4)nc23)cs1 [Compound 83, (R)-2-((3-chloro-4-fluorophenoxy)methyl)-8-(2-((2-hydroxypropyl)amino)thiazol-4-yl)pyrido[3,4-d]pyrimidin-4(3H)-one]
14 | < 20 | O=c1[nH]c(COc2ccc(F)cc2)nc2c(-c3csc(NC4CCN(Cc5ccccc5)CC4)n3)nccc12 [Compound 128, 8-(2-((1-benzylpiperidin-4-yl)amino)thiazol-4-yl)-2-((4-fluorophenoxy)methyl) pyrido[3,4-d]pyrimidin-4(3H)-one]
15 | 20 to 50 | O=c1[nH]c(CCc2ccccc2)nc2c(-c3csc(NCCO)n3)nccc12 [Compound 161, 8-(2-((2-hydroxyethyl)amino)thiazol-4-yl)-2-phenethylpyrido[3,4-d]pyrimidin-4(3H)-one]
16 | ≥ 50 | O=c1[nH]c(COc2ccc(F)c(Cl)c2)nc2c(-c3csc(NCCCO)n3)nccc12 [Compound 90, 2-((3-chloro-4-fluorophenoxy)methyl)-8-(2-((3-hydroxypropyl)amino)thiazol-4-yl)pyrido[3,4-d]pyrimidin-4(3H)-one]

Further lines, the compound ahead of its results:

Row | Compound | inhibition at 0.1 µM [%]
17 | O=c1[nH]c(CCc2ccccc2)nc2c(-c3csc(NC4CCN(Cc5ccccc5)CC4)n3)nccc12 [Compound 164, 8-(2-((1-benzylpiperidin-4-yl)amino)thiazol-4-yl)-2-phenethylpyrido[3,4-d]pyrimidin-4(3H)-one] | ≥ 50
18 | O=c1[nH]cnc2c(-c3cnn(Cc4ccccc4)c3)nccc12 [Compound 64, 8-(1-benzyl-1H-pyrazol-4-yl)pyrido[3,4-d]pyrimidin-4(3H)-one] | 20 to 50
19 | Nc1nn(-c2nccc3c(=O)[nH]cnc23)cc1-c1ccc(C(=O)N2CCOCC2)cc1 [Compound 21, 8-(3-amino-4-(4-(morpholine-4-carbonyl)phenyl)-1H-pyrazol-1-yl)pyrido[3,4-d]pyrimidin-4(3H)-one] | ≥ 50
20 | Nc1nn(-c2nccc3c(=O)[nH]cnc23)cc1-c1cnn(C2CCNCC2)c1 [Compound 22, 8-(3-amino-1′-(piperidin-4-yl)-1H,1′H-[4,4′-bipyrazol]-1-yl)pyrido[3,4-d]pyrimidin-4(3H)-one] | ≥ 50
21 | CC(C)N1CCC(CNc2nc(-c3nccc4c(=O)[nH]cnc34)cs2)CC1 [Compound 55, 8-(2-(((1-isopropylpiperidin-4-yl)methyl)amino)thiazol-4-yl)pyrido[3,4-d]pyrimidin-4(3H)-one] | ≥ 50
22 | Nc1nn(-c2nccc3c(=O)[nH]cnc23)cc1-c1ccc(O)cc1 [Compound 25, 8-(3-amino-4-(4-hydroxyphenyl)-1H-pyrazol-1-yl)pyrido[3,4-d]pyrimidin-4(3H)-one] | 20 to 50
23 | COCCN1CCC(CNc2nc(-c3nccc4c(=O)[nH]cnc34)cs2)CC1 [Compound 53, 8-(2-(((1-(2-methoxyethyl)piperidin-4-yl)methyl)amino)thiazol-4-yl)pyrido[3,4-d]pyrimidin-4(3H)-one] | ≥ 50
24 | Nc1nn(-c2nccc3c(=O)[nH]cnc23)cc1-c1cnn(CCO)c1 [Compound 26, 8-(3-amino-1′-(2-hydroxyethyl)-1H,1′H-[4,4′-bipyrazol]-1-yl)pyrido[3,4-d]pyrimidin-4(3H)-one] | 20 to 50
25 | O=c1[nH]c(COc2ccc(Cc3ccccc3)cc2)nc2c(-c3ccccn3)nccc12 [Compound 67, 2-((4-benzylphenoxy)methyl)-8-(pyridin-2-yl)pyrido[3,4-d]pyrimidin-4(3H)-one] | 20 to 50
26 | Cn1cc(-c2cn(-c3nccc4c(=O)[nH]cnc34)nc2N)cn1 [Compound 15, 8-(3-amino-1′-methyl-1H,1′H-[4,4'-bipyrazol]-1-yl)pyrido[3,4-d]pyrimidin-4(3H)-one] | 20 to 50
27 | O=c1[nH]cnc2c(-n3cc(-c4cccc(CCCO)c4)cn3)nccc12 [Compound 7, 8-(4-(3-(3-hydroxypropyl)phenyl)-1H-pyrazol-1-yl)pyrido[3,4-d]pyrimidin-4(3H)-one] | < 20
28 | N[C@H]1CC[C@@H](Nc2nc(-c3nccc4c(=O)[nH]cnc34)cs2)CC1 [Compound 57, 8-(2-(((1s,4s)-4-aminocyclohexyl)amino)thiazol-4-yl)pyrido[3,4-d]pyrimidin-4(3H)-one] | 20 to 50
29 | O=c1[nH]cnc2c(-n3cc(-c4ccccc4Oc4ccccc4)cn3)nccc12 [Compound 10, 8-(4-(2-phenoxyphenyl)-1H-pyrazol-1-yl)pyrido[3,4-d]pyrimidin-4(3H)-one] | < 20
30 | O=c1[nH]cnc2c(-c3csc(NC4CCNCC4)n3)nccc12 [Compound 49, 8-(2-(piperidin-4-ylamino)thiazol-4-yl)pyrido[3,4-d]pyrimidin-4(3H)-one] | 20 to 50
31 | CN1CCN(CCNc2nc(-c3nccc4c(=O)[nH]cnc34)cs2)CC1 [Compound 45, 8-(2-((2-(4-methylpiperazin-1-yl)ethyl)amino)thiazol-4-yl)pyrido[3,4-d]pyrimidin-4(3H)-one] | 20 to 50
32 | CN1CCC(Nc2nc(-c3nccc4c(=O)[nH]cnc34)cs2)CC1 [Compound 50, 8-(2-((1-methylpiperidin-4-yl)amino)thiazol-4-yl)pyrido[3,4-d]pyrimidin-4(3H)-one] | 20 to 50
33 | O=c1[nH]cnc2c(-c3csc(NCC4CCN(C5CCCC5)CC4)n3)nccc12 [Compound 54, 8-(2-(((1-cyclopentylpiperidin-4-yl)methyl)amino)thiazol-4-yl)pyrido[3,4-d]pyrimidin-4(3H)-one] | ≥ 50
34 | O=c1[nH]cnc2c(-c3csc(NC4CCN(Cc5ccccc5)CC4)n3)nccc12 [Compound 61, 8-(2-((1-benzylpiperidin-4-yl)amino)thiazol-4-yl)pyrido[3,4-d]pyrimidin-4(3H)-one] | 20 to 50
35 | O=c1[nH]cnc2c(-n3cc(-c4cccc(OCc5ccccc5)c4)cn3)nccc12 [Compound 5, 8-(4-(3-(benzyloxy)phenyl)-1H-pyrazol-1-yl)pyrido[3,4-d]pyrimidin-4(3H)-one] | < 20
